Data on 4 molecules can be found in patent US20040220115A1, “Medicinal compositions and their method of preparation” (priority 1999, published 2004).

A short description of series [1]: Degradation of stored BEC extract, solamargine and solasonine levels by HPLC. Format: physicochemical. The conditions noted are these: for % degradation estimated: four weeks storage under ambient conditions, estimated from the degradation study. From the text: A BEC extract was obtained from Solanum Sodomaeum according to conventional extraction procedures. The degradation of the BEC extract was estimated by measuring the change in solamargine and solasonine levels over time. Although degradation of BEC could also be measured by an increase in sugar levels, in practice HPLC analysis for solamargine and solasonine allowed a more quantative analysis to be conducted and was therefore chosen for this study.

The test system of series [2] is human ovarian cancer cells. Kind of series: Effect of washed and unwashed BEC on human ovarian cancer cells. In kind it is cell-based. As for the experimental part: The effect of washed and unwashed BEC or human ovarian cancer cells was compared. The washed and unwashed BEC were prepared as described for Example 8.
Cells (5×10^4) were transferred (200 μl chamber of a microscope slide (Lab Tek Miles Scientific). Controls received 50 μl HIFCS/TCM and experimental chambers 50 μl of solasodine glycosides (BEC) 1.5-3.8 μM/L, washed and unwashed after 7-h preincubation and incubated for a further 17 h and […] preincubation and incubated for a further 3h. Similarly, the cells were treated with the aglycone solasodine 19.4-96.8 μM/L. The cells were fixed and examined by the Papanicolaou method.

The test system of series [3] is murine sarcoma 180. The conditions noted are these: cited from earlier work.
Setting [4] is: Time 0 years storage of BEC extract.

With `C[C@@H]1CC[C@@]2(NC1)O[C@H]1C[C@H]3[C@@H]4CC=C5C[C@@H](O[C@@H]6O[C@H](CO)[C@@H](O[C@@H]7O[C@@H](C)[C@H](O)[C@@H](O)[C@H]7O)[C@H](O)[C@H]6O[C@@H]6O[C@@H](C)[C@H](O)[C@@H](O)[C@H]6O)CC[C@]5(C)[C@H]4CC[C@]3(C)[C@H]1[C@@H]2C` [Solamargine, (22R,25R)-spiro-5-en-3β-yl-α-L-rhamnopyranosyl-(1->2glu)-O-α-L-rhamnopyranosyl-(1->4glu)-β-D-gluco-pyranose], the “Degradation (%) mean ± S.D.” value is given as 0% in series [1] (setting [4]); 4 ± 4% in series [1] (Time 0.5 years); 8 ± 5% in series [1] (Time 1 year); 12 ± 7% in series [1] (Time 2 years); 15 ± 8% in series [1] (Time 3 years); 19 ± 10% in series [1] (Time 4 years). The “Degradation (%) mean ± S.D.” value in series [1] (Time 5 years) turned out to be 22 ± 10%. For the same molecule, the “% degradation estimated” value in series [1] is given as “less than 4%”.

On to `C[C@@H]1CC[C@@]2(NC1)O[C@H]1C[C@H]3[C@@H]4CC=C5C[C@@H](O[C@@H]6O[C@H](CO)[C@H](O)[C@H](O[C@@H]7O[C@H](CO)[C@@H](O)[C@H](O)[C@H]7O)[C@H]6O[C@@H]6O[C@@H](C)[C@H](O)[C@@H](O)[C@H]6O)CC[C@]5(C)[C@H]4CC[C@]3(C)[C@H]1[C@@H]2C` [Solasonine, (22R, 25R)-spiro-5-en-3β-yl-α-L-rhamnopyranosyl-(1->2gal)-O-β-D-glucopyranosyl-(1->3gal)-β-D-galactopyranose], for which the “Degradation (%) mean ± S.D.” value in series [1] (setting [4]) stood at 0%; in series [1] (Time 0.5 years), 5 ± 5%; in series [1] (Time 1 year) it was 10 ± 5%; in series [1] (Time 2 years), 15 ± 8%; in series [1] (Time 3 years), 19 ± 9%; in series [1] (Time 4 years), 21 ± 10%. The “Degradation (%) mean ± S.D.” value in series [1] (Time 5 years) was 23 ± 11%. For the same molecule, the “% degradation estimated” value in series [1] was below 5%.

As for `C[C@@H]1CC[C@@]2(NC1)O[C@H]1C[C@H]3[C@@H]4CC=C5C[C@@H](O)CC[C@]5(C)[C@H]4CC[C@]3(C)[C@H]1[C@@H]2C` [Solasodine, solasodine], the “% survival” value in series [2] (3 μg/mL), in series [2] (6 μg/mL), in series [2] (9 μg/ml), in series [2] (12 μg/ml), in series [2] (15 μg/ml) and in series [2] (18 μg/ml) was 100% in each case. Also, the “% survival” value in series [2] (24 μg/ml) was 100%. Besides, the “effect against tumor cells” value in series [3] (administered at levels at which BEC is effective) is recorded as “ineffective”.

Regarding `C[C@H](O)[C@H](O)[C@@H](O)[C@@H](O)C=O` [rhamnose], the “effect on S180 activity” value in series [3] (similar concentrations of rhamnose in the absence of BEC) is on record as “no effect”.
